The target in test [1] is T1, human liver Glucokinase (GK) (Homo sapiens, UniProt P35557).
T1 construct: (His)6; made in house; host or cells: Escherichia coli
T1 sequence (P35557 1-466 isoform P35557-2): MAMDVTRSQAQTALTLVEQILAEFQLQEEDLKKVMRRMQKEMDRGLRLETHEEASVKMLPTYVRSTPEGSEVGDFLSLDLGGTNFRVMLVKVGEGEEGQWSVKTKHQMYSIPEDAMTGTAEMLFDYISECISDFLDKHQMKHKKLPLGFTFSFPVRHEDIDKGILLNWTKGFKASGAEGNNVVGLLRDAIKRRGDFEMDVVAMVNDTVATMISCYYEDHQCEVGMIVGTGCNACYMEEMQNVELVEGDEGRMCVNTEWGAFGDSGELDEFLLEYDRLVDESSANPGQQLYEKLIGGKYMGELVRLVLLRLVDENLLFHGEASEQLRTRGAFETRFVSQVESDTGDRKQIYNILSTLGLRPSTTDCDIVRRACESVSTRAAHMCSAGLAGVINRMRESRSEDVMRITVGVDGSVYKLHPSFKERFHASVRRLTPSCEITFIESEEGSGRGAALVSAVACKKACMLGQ
Briefly: Glucokinase enzyme assay, Liver GK data. The test is classed as biochemical. The conditions noted are these: for pEC50: concentration producing 50% activation above vehicle control; for EC100%: concentration producing 100% activation above vehicle control. From the text:
(§1) An enzymatic Glucokinase (GK) assay using purified recombinant human liver/pancreas enzyme was used to evaluate the effects of potential small molecule modulators.
(§2) In this assay, GK catalyzes glucose phosphorylation in the presence of ATP. The product of this reaction, glucose-6-phosphate, was then oxidized by an excess of glucose-6-phosphate dehydrogenase to produce gluconate-6-phosphate with concomitant reduction of nicotinamide adenine dinucleotide (NAD). […] Human GK (Liver/Pancreas) was expressed in Escherichia coli as a (His) 6-tagged fusion protein and was purified by metal chelate affinity chromatography. The assay was performed in a final incubation volume of 80 μl in a 96-well clear low UV absorption plates. The incubation mixture consisted of 25 mM HEPES, 2 mM MgSO4, 1 mM dithiothreotol (DTT), 1 mg/ml bovine serum albumin (BSA), 1 mM ATP, 1 mM NAD, and 12 mM glucose, 10 units per ml glucose-6-phosphate dehydrogenase, and +/−300 ng per ml GK. For determination of the affinity (Km) and Vmax, different concentrations of glucose ranging from 0.5 mM to 40 mM were used in the assay; see Grimsby, J., Sarabu, R.; Grippo, J. F.; et. al. Science 2003, 301, 370-373. Production of reduced NAD (Nicotinamide Adenine Dinucleotide) was measured as changes in absorption at 340 nm in 96-well plate reader (Envision model # 2101 Multilabel Plate reader). % Activation @ 50 μM was calculated as the percentage increase in GK activity above the vehicle control with the effective concentration of the compound being 50 μM. EC50% (μM) was calculated as the effective concentration of the compound that produces 50% activation above the vehicle control, and EC100% (μM) was calculated as the effective concentration of the compound that produces 100% activation above the vehicle control.

The target of test [2] is T2, human pancreas Glucokinase (GK) (Homo sapiens, UniProt P35557).
T2 construct: (His)6; made in house; host or cells: Escherichia coli
T2 sequence (P35557 1-465): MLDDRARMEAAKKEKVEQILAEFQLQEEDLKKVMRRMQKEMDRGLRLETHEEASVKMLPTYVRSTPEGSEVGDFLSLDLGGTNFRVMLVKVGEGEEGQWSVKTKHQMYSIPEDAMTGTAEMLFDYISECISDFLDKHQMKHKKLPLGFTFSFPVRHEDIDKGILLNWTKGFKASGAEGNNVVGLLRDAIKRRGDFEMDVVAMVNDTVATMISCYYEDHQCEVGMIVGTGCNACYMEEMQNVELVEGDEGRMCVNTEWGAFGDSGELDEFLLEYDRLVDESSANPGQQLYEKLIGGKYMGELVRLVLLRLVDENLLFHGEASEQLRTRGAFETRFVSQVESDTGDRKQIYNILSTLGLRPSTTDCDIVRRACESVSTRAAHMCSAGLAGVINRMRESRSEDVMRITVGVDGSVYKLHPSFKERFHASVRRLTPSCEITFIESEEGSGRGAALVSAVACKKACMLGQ
The test is described as follows: Glucokinase enzyme assay, Pancreas GK data. The conditions noted are these: for activation at 50 µM: compound 50 μM, percentage increase in GK activity above vehicle control, 12 mM glucose; for pEC50: concentration producing 50% activation above vehicle control. The format is biochemical.
Description: as §1, §2

Where [3] appears, read: compound 50 μM, percentage increase in GK activity above vehicle control, 12 mM glucose.

pEC50: −log10 of the molar value. Where “and” joins values, the source holds several entries; their conditions need not be identical. Equal entries are not always repeated.

Take `O=C(CSC1c2ccccc2C(=O)N1Cc1cccs1)Nc1nccs1` (stereo not drawn) [Compound 14, 2-(3-Oxo-2-thiophen-2-ylmethyl-2,3-dihydro-1H-isoindol-1-ylsulfanyl)-N-thiazol-2-yl-acetamide]: in test [1], the pEC50 was 5.30 and the “EC100%” value was 19.4 µM.

Consider `O=C(CSC1c2ccccc2C(=O)N1Cc1cccs1)Nc1ncccn1` (stereo not drawn) [Compound 16, 2-(3-Oxo-2-thiophen-2-ylmethyl-2,3-dihydro-1H-isoindol-1-ylsulfanyl)-N-pyrimidin-2-yl-acetamide], for which the activation at 50 µM in test [1] (setting [3]) was 13%.

In test [1] (setting [3]), `O=C(CSC1c2ccccc2C(=O)N1Cc1ccccc1)Nc1ccc(C(=O)O)cn1` (stereo not drawn) [Compound 19, 6-[2-(2-Benzyl-3-oxo-2,3-dihydro-1H-isoindol-1-ylsulfanyl)-acetyamino]-nicotinic acid] displayed an activation at 50 µM of 146%. The pEC50 in test [1] is 5.49.

The compound `O=C(COC1c2ccccc2C(=O)N1Cc1ccccc1)Nc1ccccn1` (stereo not drawn) [Compound 23, 2-(2-Benzyl-3-oxo-2,3-dihydro-1H-isoindol-1-yloxy)-N-pyridin-2-yl-acetamide] yielded an activation at 50 µM in test [1] (setting [3]) of 164%. For the same compound, in test [1], the pEC50 was 5.75 and the “EC100%” value turned out to be 8.71 µM.

As to `O=C(CNC1c2ccccc2C(=O)N1Cc1ccccc1)Nc1ccccn1` (stereo not drawn) [Compound 27, 2-(2-Benzyl-3-oxo-2,3-dihydro-1H-isoindol-1-ylamine)-N-pyridin-2-yl-acetamide], the “% Activation @ 50 μM” value in test [1] (setting [3]) is on record as 228%. Moreover, in test [1], the pEC50 is 5.74 and 6.05; the “EC100%” value is 4.5 µM and 2.6 µM.

`O=C(COC1c2ccccc2C(=O)N1Cc1ccccc1)Nc1nccs1` (stereo not drawn) [Compound 28, 2-(2-Benzyl-3-oxo-2,3-dihydro-1H-isoindol-1-yloxy)-N-thiazol-2-yl-acetamide]: the activation at 50 µM in test [1] (setting [3]) is 73%. Also, the pEC50 in test [1] is 4.95.

With `COc1ccc(CN2C(=O)c3ccccc3C2SCC(=O)Nc2nccs2)cc1` (stereo not drawn) [Compound 29, 2-[2-(4-Methoxybenzyl)-3-oxo-2,3-dihydro-1H-isoindol-1-ylsulfanyl]-N-thiazol-2-yl-acetamide], the activation at 50 µM in test [1] (setting [3]) came to 156%. In test [1], the pEC50 is 5.36 and the “EC100%” value came to 17.6 µM.

`O=C(CSC1c2ccccc2C(=O)N1Cc1ccc(Cl)cc1)Nc1nccs1` (stereo not drawn) [Compound 30, 2-[2-(4-Chlorobenzyl)-3-oxo-2,3-dihydro-1H-isoindol-1-ylsulfanyl]-N-thiazol-2-yl-acetamide] registered an activation at 50 µM in test [1] (setting [3]) of 102%. The compound further had a pEC50 in test [1] of 5.02.

With `O=C(CSC1c2ccccc2C(=O)N1Cc1cccs1)Nc1cnccn1` (stereo not drawn) [Compound 31, 2-(3-Oxo-2-thiophen-2-ylmethyl-2,3-dihydro-1H-isoindol-1-ylsulfanyl)-N-pyrazin-2-yl-acetamide], the activation at 50 µM in test [1] (setting [3]) was determined as 199%. Besides, in test [1], the pEC50 is 5.40 and the “EC100%” value was determined as 12 µM.

On to `O=C(CSC1c2ccccc2C(=O)N1Cc1ccco1)Nc1nccs1` (stereo not drawn) [Compound 32, 2-(2-Furan-2-ylmethyl-3-oxo-2,3-dihydro-1H-isoindol-1-ylsulfanyl)-N-thiazol-2-yl-acetamide], for which the activation at 50 µM in test [1] (setting [3]) was determined as 113%. This compound showed a pEC50 in test [1] of 5.04.

`CN(C)c1ccc(CN2C(=O)c3ccccc3C2SCC(=O)Nc2nccs2)cc1` (stereo not drawn) [Compound 33, 2-[2-(4-Dimethylaminobenzyl)-3-oxo-2,3-dihydro-1H-isoindol-1-ylsulfanyl]-N-thiazol-2-yl-acetamide] registered an activation at 50 µM in test [1] (setting [3]) of 229%. Moreover, the pEC50 in test [1] is 5.59.

In test [1] (setting [3]), `COC(=O)c1ccc(NC(=O)CSC2c3ccccc3C(=O)N2Cc2cccs2)nc1` (stereo not drawn) [Compound 34, 6-[2-(3-Oxo-2-thiophen-2-ylmethyl-2,3-dihydro-1H-isoindol-1-ylsulfanyl)-acetylamino]-nicotinic acid methyl ester] displayed an activation at 50 µM of 180%. Besides, in test [1], the pEC50 is 6.00 and the “EC100%” value turned out to be 4.1 µM.

For `COC(=O)c1ccc(NC(=O)CSC2c3ccccc3C(=O)N2Cc2ccccc2)nc1` (stereo not drawn) [Compound 35, 6-[2-(2-Benzyl-3-oxo-2,3-dihydro-1H-isoindol-1-ylsulfanyl)-acetylamino]-nicotinic acid methyl ester], the activation at 50 µM in test [1] (setting [3]) was 171%. In test [1], the “EC100%” value is 2.9 µM and 3.0 µM.

Take `CCOC(=O)Cc1csc(NC(=O)CSC2c3ccccc3C(=O)N2Cc2cccs2)n1` (stereo not drawn) [Compound 36, {2-[2-(3-Oxo-2-thiophen-2-ylmethyl-2,3-dihydro-1H-isoindol-1-ylsulfanyl)-acetylamino]-thiazol-4-yl}-acetic acid ethyl ester]: in test [1] (setting [3]), the activation at 50 µM was found to be 143%. Also, the pEC50 in test [1] was 5.05.

`COC(=O)c1ccc(NC(=O)COC2c3ccccc3C(=O)N2Cc2ccccc2)nc1` (stereo not drawn) [Compound 37, 6-[2-(2-Benzyl-3-oxo-2,3-dihydro-1H-isoindol-1-yloxy)-acetylamino]-nicotinic acid methyl ester]: the activation at 50 µM in test [1] (setting [3]) is 256%. For the same compound, in test [1], the pEC50 was 6.24 and the “EC100%” value turned out to be 1.57 µM.

For the compound `COC(=O)c1ccc(NC(=O)COC2c3cc(C)ccc3C(=O)N2Cc2ccccc2)nc1` (stereo not drawn) [Compound 59], in test [2], the activation at 50 µM was 127% and the pEC50 is 5.48. For the same compound, the “EC100%” value in test [2] (concentration producing 100% activation above vehicle control) worked out at 20.58 µM.

For the compound `Cc1ccc2c(c1)C(OCC(=O)Nc1nccs1)N(Cc1ccccc1)C2=O` (stereo not drawn) [Compound 60, 2-(2-Benzyl-6-methyl-3-oxo-2,3-dihydro-1H-isoindol-1-yloxy)-N-thiazol-2-yl-acetamide], in test [2], the activation at 50 µM amounted to 102% and the pEC50 is 5.12.

In test [2], `Cc1ccc2c(c1)C(OCC(=O)Nc1ccccn1)N(Cc1ccccc1)C2=O` (stereo not drawn) [Compound 61, 2-(2-Benzyl-6-methyl-3-oxo-2,3-dihydro-1H-isoindol-1-yloxy)-N-pyridin-2-yl-acetamide] gave an activation at 50 µM of 8.4% and a pEC50 of 4.59.

What is called pEC50 is −log10 of the EC50, conventionally taken in molar units.
